Results: article PMC9421654, “Discovery of Substituted Di(pyridin-2-yl)-1,2,4-thiadiazol-5-amines as Novel Macrofilaricidal Compounds for the Treatment of Human Filarial Infections” (Journal of Medicinal Chemistry, 2022)

How the values were obtained:
CYP1A2 = biological target: T1, CYP1A2 (Homo sapiens, UniProt P05177); assay: Cytochrome P450 inhibition, 1A2; assay type: in vitro ADME; conditions: read-out: Cytochrome P450s IC50, 1A2
T1 sequence (P05177 1-516): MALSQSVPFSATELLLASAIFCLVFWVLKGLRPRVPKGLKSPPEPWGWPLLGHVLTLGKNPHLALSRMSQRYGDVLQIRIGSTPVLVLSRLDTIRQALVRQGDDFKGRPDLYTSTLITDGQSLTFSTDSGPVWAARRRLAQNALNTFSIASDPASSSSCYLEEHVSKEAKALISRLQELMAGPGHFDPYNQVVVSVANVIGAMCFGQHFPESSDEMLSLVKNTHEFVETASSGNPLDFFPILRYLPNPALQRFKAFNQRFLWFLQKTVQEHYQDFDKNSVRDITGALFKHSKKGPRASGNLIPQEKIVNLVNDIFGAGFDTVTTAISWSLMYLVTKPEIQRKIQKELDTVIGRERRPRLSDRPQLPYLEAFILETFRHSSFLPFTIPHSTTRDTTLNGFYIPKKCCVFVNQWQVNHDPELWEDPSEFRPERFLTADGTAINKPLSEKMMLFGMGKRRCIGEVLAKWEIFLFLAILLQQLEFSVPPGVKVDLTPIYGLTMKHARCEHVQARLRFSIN

CYP2C19 = CYP2C19 (Homo sapiens, UniProt P33261); assay: Cytochrome P450 inhibition, 2C19; assay type: in vitro ADME; conditions: read-out: Cytochrome P450s IC50, 2C19
P-gp (MDR1) = biological target: T2, P-gp (MDR1) (Homo sapiens, UniProt P08183); assay: MDCK/MDR1 permeability and efflux; assay type: in vitro ADME; conditions: dog
T2 construct: expressed in transfected cells; host or cells: MDCK (Madin Darby canine kidney) cells
From the text: Our approach was to target compounds with efflux ratio (ER) >2.5 in the MDCK cell line transfected with MDR1 (multidrug resistance-1 transfected Madin Darby canine kidney cell line). […] Our goal was to impart structural elements designed to impart Pgp recognition.

CYP2D6 = CYP2D6 (Homo sapiens, UniProt P10635); assay: Cytochrome P450 inhibition, 2D6; assay type: in vitro ADME; conditions: read-out: Cytochrome P450s IC50, 2D6
CYP3A4 = CYP3A4 (Homo sapiens, UniProt P08684); assay: Cytochrome P450 inhibition, 3A4; assay type: in vitro ADME; conditions: read-out: Cytochrome P450s IC50, 3A4
hERG = biological target: T3, hERG (Homo sapiens, UniProt Q12809); assay: hERG inhibition; assay type: cell-based; conditions: human
T3 construct: expressed in transfected cells

[1] = Plasma protein binding, rat; assay type: in vitro ADME; conditions: read-out: Plasma Protein Binding %, r (converted)
CYP2C9 = CYP2C9 (Homo sapiens, UniProt P11712); assay: Cytochrome P450 inhibition, 2C9; assay type: in vitro ADME; conditions: read-out: Cytochrome P450s IC50, 2C9
TK6 cells = assay: Micronucleus test; assay type: cell-based; conditions: presence and absence of rat liver S9
CYP2C8 = biological target: T4, CYP2C8 (Homo sapiens, UniProt P10632); assay: Cytochrome P450 inhibition, 2C8; assay type: in vitro ADME; conditions: read-out: Cytochrome P450s IC50, 2C8
T4 sequence (P10632 1-490): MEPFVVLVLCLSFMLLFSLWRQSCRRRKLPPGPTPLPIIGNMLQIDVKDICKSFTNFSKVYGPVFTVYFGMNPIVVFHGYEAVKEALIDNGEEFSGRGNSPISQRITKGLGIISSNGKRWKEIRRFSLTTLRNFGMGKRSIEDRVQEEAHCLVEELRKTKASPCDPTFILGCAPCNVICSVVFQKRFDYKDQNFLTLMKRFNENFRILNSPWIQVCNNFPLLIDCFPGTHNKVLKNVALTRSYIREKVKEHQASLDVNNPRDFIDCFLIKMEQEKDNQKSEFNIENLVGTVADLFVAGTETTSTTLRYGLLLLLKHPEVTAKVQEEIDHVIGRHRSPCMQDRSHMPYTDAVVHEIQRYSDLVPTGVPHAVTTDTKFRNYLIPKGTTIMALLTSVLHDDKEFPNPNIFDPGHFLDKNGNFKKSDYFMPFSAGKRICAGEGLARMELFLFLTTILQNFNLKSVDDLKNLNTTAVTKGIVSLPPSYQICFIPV

[2] = Plasma protein binding, human; assay type: in vitro ADME; conditions: read-out: Plasma Protein Binding %, h (converted)
[3] = THLE-2 cytotoxicity assay (ATP); conditions: human
Method in brief: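 THLE-2 cells in supplemented LHC-8 medium were exposed for 24 or 72 h to final concentrations of 0.01–300 μM. Viability was read as ATP by CellTiter-Glo luminescence and normalized to DMSO vehicle. IC50 came from nonlinear regression of dose-response curves.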

in vitro = conditions: human, Caco-2
[4] = Exploratory toxicological evaluation in vivo
From the text: Showing no in vitro safety concerns (Table 7), it was progressed into in vivo safety evaluation studies. […] Since the mechanism of action of this series of compounds is not known, the best approach was to design analogs that would limit exposure within the brain.

Rat pharmacokinetics = conditions: in vivo
From the text: Table S1. Compound 31cross species PK data.

CYP2D6, sequence (P10635 whole entry): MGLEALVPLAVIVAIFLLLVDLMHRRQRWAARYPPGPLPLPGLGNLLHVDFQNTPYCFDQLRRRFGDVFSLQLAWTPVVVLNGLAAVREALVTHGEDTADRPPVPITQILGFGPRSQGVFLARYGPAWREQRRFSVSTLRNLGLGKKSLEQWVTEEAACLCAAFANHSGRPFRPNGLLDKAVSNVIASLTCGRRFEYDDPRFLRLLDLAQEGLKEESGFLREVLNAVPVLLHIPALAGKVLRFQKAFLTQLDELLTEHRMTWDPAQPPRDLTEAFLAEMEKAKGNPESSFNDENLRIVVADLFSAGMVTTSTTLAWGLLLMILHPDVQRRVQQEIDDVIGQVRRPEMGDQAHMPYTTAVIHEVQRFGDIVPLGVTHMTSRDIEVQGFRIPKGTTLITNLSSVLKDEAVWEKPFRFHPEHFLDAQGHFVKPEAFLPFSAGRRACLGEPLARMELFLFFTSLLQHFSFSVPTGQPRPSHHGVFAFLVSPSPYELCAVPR
CYP2C9, sequence (P11712 whole entry): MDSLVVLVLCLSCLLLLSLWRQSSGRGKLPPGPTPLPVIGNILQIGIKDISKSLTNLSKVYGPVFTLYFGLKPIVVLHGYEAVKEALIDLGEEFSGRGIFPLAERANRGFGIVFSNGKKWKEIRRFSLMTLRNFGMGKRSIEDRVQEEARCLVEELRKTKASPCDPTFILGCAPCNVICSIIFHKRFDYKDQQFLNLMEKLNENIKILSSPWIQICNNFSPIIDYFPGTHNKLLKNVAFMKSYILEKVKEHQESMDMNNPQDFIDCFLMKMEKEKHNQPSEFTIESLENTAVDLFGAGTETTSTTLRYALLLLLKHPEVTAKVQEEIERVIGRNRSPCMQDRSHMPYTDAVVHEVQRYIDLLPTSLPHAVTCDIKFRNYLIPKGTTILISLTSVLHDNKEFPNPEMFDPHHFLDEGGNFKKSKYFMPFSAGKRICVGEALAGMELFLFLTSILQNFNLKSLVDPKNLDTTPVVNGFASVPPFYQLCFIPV
T3 sequence (Q12809 whole entry): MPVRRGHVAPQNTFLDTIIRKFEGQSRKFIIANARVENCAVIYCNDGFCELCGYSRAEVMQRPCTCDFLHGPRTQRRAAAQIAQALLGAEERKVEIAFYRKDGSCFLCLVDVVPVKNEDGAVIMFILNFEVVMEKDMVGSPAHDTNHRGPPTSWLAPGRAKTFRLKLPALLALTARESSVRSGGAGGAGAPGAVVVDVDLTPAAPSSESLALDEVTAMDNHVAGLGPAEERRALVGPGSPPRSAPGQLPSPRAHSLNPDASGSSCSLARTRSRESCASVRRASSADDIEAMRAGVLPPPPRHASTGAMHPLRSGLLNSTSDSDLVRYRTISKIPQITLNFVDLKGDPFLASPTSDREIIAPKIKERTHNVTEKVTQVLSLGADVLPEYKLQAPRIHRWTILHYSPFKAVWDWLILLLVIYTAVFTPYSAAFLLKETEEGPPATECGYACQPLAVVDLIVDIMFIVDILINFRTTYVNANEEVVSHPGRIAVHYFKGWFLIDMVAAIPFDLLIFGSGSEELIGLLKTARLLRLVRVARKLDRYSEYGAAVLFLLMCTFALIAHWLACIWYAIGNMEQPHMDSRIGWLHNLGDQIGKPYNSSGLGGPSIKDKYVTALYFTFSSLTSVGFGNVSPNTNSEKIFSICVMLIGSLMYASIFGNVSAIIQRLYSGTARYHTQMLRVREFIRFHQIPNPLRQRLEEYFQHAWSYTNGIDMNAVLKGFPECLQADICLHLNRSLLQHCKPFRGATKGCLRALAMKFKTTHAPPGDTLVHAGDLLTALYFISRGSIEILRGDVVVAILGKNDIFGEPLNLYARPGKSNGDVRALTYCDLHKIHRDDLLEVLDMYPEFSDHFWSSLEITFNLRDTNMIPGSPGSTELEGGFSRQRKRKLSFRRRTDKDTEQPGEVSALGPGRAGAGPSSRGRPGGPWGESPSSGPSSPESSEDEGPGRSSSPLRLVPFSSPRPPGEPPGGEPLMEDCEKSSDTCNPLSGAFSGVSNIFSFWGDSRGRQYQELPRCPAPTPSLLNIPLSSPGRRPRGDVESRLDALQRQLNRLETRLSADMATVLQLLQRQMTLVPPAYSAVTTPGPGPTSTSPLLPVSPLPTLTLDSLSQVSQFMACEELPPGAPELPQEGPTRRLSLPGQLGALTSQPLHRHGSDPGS
CYP3A4, sequence (P08684 whole entry): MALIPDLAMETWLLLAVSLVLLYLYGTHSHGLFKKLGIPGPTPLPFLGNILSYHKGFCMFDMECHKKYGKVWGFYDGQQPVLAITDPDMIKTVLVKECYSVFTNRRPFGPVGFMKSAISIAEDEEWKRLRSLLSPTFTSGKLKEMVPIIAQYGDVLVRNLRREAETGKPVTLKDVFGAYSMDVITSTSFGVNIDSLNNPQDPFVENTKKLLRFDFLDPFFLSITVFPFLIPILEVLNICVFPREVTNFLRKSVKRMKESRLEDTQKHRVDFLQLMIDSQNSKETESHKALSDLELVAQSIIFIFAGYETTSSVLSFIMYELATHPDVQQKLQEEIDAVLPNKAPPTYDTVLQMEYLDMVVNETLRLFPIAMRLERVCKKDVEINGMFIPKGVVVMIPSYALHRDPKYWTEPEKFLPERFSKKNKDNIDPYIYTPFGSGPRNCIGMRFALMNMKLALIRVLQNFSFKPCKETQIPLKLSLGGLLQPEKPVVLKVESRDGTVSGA
T2 sequence (P08183 whole entry): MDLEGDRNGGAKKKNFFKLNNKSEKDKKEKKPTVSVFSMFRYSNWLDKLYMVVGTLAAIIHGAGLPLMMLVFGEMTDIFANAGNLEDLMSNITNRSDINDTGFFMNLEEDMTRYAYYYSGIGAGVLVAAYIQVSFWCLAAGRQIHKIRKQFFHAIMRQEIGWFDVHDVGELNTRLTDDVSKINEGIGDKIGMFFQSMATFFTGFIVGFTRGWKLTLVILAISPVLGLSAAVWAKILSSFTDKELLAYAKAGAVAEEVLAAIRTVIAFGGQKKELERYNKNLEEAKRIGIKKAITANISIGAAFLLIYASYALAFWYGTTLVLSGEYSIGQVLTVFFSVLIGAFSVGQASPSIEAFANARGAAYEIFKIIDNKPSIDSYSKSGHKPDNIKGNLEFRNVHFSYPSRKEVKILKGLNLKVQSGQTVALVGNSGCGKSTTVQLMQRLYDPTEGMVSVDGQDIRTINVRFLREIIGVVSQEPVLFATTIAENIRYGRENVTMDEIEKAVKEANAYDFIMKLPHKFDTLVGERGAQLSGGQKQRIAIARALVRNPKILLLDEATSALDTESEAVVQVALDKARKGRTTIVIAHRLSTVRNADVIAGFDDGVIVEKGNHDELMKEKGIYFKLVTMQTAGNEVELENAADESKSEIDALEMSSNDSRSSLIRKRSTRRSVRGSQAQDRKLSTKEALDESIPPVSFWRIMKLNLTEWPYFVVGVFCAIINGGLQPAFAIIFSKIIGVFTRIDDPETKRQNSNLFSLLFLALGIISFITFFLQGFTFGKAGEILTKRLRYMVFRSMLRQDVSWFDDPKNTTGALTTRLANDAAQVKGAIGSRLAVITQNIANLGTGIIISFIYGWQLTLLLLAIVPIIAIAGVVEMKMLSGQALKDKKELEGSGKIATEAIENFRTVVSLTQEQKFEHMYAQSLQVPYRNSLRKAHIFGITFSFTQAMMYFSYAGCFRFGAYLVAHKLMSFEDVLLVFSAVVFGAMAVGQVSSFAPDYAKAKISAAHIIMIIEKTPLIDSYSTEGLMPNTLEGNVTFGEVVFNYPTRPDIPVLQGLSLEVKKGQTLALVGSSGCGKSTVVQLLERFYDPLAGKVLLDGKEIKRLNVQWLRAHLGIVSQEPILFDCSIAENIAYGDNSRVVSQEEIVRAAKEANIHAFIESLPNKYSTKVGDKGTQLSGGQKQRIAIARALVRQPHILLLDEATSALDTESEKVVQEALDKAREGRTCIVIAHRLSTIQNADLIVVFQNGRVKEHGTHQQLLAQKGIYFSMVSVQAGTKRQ
CYP2C19, sequence (P33261 whole entry): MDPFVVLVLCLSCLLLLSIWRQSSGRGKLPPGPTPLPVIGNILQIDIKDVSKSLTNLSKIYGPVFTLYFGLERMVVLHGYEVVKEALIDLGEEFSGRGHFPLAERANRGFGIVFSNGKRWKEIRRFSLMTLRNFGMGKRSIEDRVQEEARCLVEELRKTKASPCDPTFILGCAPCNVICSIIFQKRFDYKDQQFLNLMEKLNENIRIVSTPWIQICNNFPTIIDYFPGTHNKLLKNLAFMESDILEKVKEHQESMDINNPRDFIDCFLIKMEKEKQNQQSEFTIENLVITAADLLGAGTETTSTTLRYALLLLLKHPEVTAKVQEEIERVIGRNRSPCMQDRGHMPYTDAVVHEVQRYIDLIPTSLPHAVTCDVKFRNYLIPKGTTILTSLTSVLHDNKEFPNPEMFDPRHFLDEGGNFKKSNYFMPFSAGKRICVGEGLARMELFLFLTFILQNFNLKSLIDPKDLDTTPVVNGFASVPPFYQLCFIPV

SMILES | IC50 (CYP1A2) | IC50 (CYP2C19) | Papp A→B (P-gp (MDR1)) | IC50 (CYP2D6) | IC50 (CYP3A4) | IC50 (hERG) | fraction unbound [1] | IC50 (CYP2C9) | micronucleus (TK6 cells) | IC50 (CYP2C8) | fraction unbound [2] | CC50 [3] | efflux ratio (in vitro) | exploratory toxicological evaluation, observations [4] | clearance (Rat pharmacokinetics; iv, i.v. 2 mg/kg, mean ±SD) | Vd (Rat pharmacokinetics; iv, i.v. 2 mg/kg, read-out: Vss) | AUC(0-inf) (Rat pharmacokinetics; po, p.o. 10 mg/kg) | Cmax (Rat pharmacokinetics; po, p.o. 10 mg/kg) | Tmax (Rat pharmacokinetics; po, p.o. 10 mg/kg) | bioavailability (Rat pharmacokinetics; po, p.o. 10 mg/kg)
CC(=O)N(C)c1cccnc1Nc1nc(-c2ccc(OC(C)C)cn2)ns1 [Compound 47, N-(2-((3-(5-Isopropoxypyridin-2-yl)-1,2,4-thiadiazol-5-yl)amino)pyridin-3-yl)-N-methylacetamide] | > 30 µM | 29 µM | 3.9 ×10⁻⁶ cm/s | 30 µM | > 30 µM | > 30 µM | 0.05 | 5.7 µM | negative | > 30 µM | 0.093 | 106 µM |  |  |  |  |  |  |  | 
Cc1cccnc1Nc1nc(-c2ccc(OC3CCN(C4CC4)CC3)cn2)ns1 [Compound 19, 3-[5-[(1-Cyclopropyl-4-piperidyl)oxy]-2-pyridyl]-N-(3-methyl-2-pyridyl)-1,2,4-thiadiazol-5-amine] |  |  |  |  |  |  |  |  |  |  |  |  | 0.9 |  |  |  |  |  |  | 
CC(C)Oc1ccc(-c2nsc(Nc3ncccc3N(C)C(=O)C3CC3)n2)nc1 [Compound 50, N-(2-((3-(5-Isopropoxypyridin-2-yl)-1,2,4-thiadiazol-5-yl)amino)pyridin-3-yl)-N-methylcyclopropanecarboxamide] |  |  | 19.3 ×10⁻⁶ cm/s |  |  |  |  |  |  |  |  |  |  |  |  |  |  |  |  | 
CC(C)Oc1ccc(-c2nsc(Nc3ncccc3N(C)C)n2)nc1 [Compound 31, N^2-(3-(5-Isopropoxypyridin-2-yl)-1,2,4-thiadiazol-5-yl)-N3,N3-dimethylpyridine-2,3-diamine] | > 30 µM | 20 µM |  | > 30 µM | 22 µM | 11.4 µM | < 0.01 | 5.5 µM |  | 7.1 µM | < 0.01 | 36 µM |  | CNS (central nervous system)-related observations were noted | 8.22 ± 2.72 mL/min/kg | 2.07 ± 0.92 L/kg | 38.1 ± 5.1 µM·h | 6.28 ± 0.9 µM | 2 h | 63 ± 20%
